# Assay results: patent publication US5204361A, “Method for treating laminitis in equine livestock” (priority 1988, dated 1993)
# How the values were obtained:
# [1] = tested on: horses given controlled doses of ground wheat; assay: Experiment 3: in vivo action of virginiamycin in horses dosed with ground wheat; design: species or system horse
# Method: These animals were pre-dosed with virginiamycin by feeding 2 kg of a mixture containing: chaff 1225 g, sugar 225 g, water 450 g and `Stafac 20` 100 g. This provided approximately 2 g virginiamycin/d. The sugar was first dissolved in water before adding the `Stafac 20` and mixing it into a uniform suspension. This mixture was then added to the chaff and mixed for 20 minutes. When this feed was not eaten on the second day on which it was offered the animals were dosed with 125 g `Stafac 20`/head (2.5 g virginiamycin/head), via a stomach tube. On the third day of the experiment the animals were given a dose of ground wheat. This provided approximately 6 mg virginiamycin/kg liveweight. The wheat was mixed in a slurry with water and given in two equal amounts with an interval of about 2 hours between doses. The animals were examined and sampled at 8 hour intervals over a period of 48 hours as described for Experiment 1 above. Times were taken from the first dose of wheat.
# Eight horses were used for this experiment. Four animals received virginiamycin and 4 animals received the same treatment but without virginiamycin. The animals which received virginiamycin were pre-dosed for two days prior to administration of the wheat slurry by feeding 640 g of a mixture containing lucerne chaff 495 g, sugar 16.5 g, cornflour 8.3 g, water 115 g, `Stafac 500` 4.95 g. This provided approximately 2.48 g virginiamycin/d. This was prepared in the following way. An evenly mixed slurry of the sugar, cornflour, water and `Stafac 500` was prepared and this was added to the lucerne chaff before mixing thoroughly in a cement mixer. The control animals received 640 g of lucerne chaff without any additive. The doses of wheat administered on the third day provided 12 grams of ground wheat/kg liveweight. Again this was given in two equal amounts with an interval between doses. The wheat given to the horses on the virginiamycin treatment contained `Stafac 20` (20/kg wheat). This provided approximately 4.8 mg virginiamycin/kg liveweight. The animals were examined and sampled at 8 hour intervals over a period of 48 hours as described above for Experiment 1.
# [2] = tested on: caecal/large colon digesta; assay: Experiment 2 Part 5: efficacy of tylosin relative to virginiamycin, digesta incubated with glucose; type: cell-based, horse; settings: digesta incubated with glucose, 37°, 20 hours, mean
# Method: An in vitro fermentation experiment was conducted to determine the efficacy of tylosin relative to virginiamycin. Samples of strained caecal and large colon digesta (16 ml) were incubated with glucose solution (60 ug/ml) (4 ml) and varying concentrations of either tylosin or virginiamycin representing […], 2.0, 4.0 ug of tylosin or virginiamycin per ml. The 25 ml containers were incubated at 37° for 20 hours. There were three replicates per treatment.
substance,measurement,setting,value
virginiamycin,signs of lameness,"[1]; 5 animals dosed with virginiamycin, ground wheat, 48 hours, 3 of 4 controls Obel grade 2",none showed any signs of lameness
same,faecal pH,"[1]; 48 hours after wheat slurry, FIG. 4(b)",no significant change
same,death after wheat slurry with virginiamycin,"[1]; Part 1, 2 horses, approx 6 mg virginiamycin/kg liveweight, build up of gas in the caecum",one died after 16 hours
same,"parameters associated with acidosis (blood bicarbonate and pH, and faecal pH)",[1]; after wheat slurry,within normal limits
same,blood L-lactate versus control,"[1]; at 8 and 16 hours after wheat, FIG. 3",significantly higher
same,blood D-lactate,"[1]; at 16 hours after wheat, FIG. 3",only a minor increase
same,blood L-lactate versus control,"[1]; by 40 hours after wheat, FIG. 3",higher (p<0.05) in the control animals
same,blood D-lactate level,[1]; in vivo,maintained blood D-lactate at a low level
same,development of laminitis following excessive carbohydrate intake,[1]; in vivo,protected horses against the development of laminitis
same,gas produced during the initial rapid fermentation of the carbohydrate,[1]; in vivo,more gas was produced
same,heart rate versus control horses,[1]; in vivo,higher than that of the control horses
same,"ill effects of the dose, second animal",[1]; in vivo,no ill effects
same,reduction in lameness versus control,[1]; virginiamycin prior to and in conjunction with the wheat slurry,significant (p<0.05) reduction
same,L-lactate,[2]; antibiotic 0.50 μg/ml,25 mmol/L
same,L-lactate,[2]; antibiotic 2.00 μg/ml,11.0 mmol/L
same,L-lactate,[2]; antibiotic 4.00 μg/ml,7.7 mmol/L
